Experimental data from US20260001892A1, “COMPOUND FOR REGULATING AND CONTROLLING ACTIVITY OF 15-PGDH AND PREPARATION METHOD THEREFOR” (SCINNOHUB PHARMACEUTICAL CO., LTD., priority 2022, published 2026).

Biological target: 15-PGDH (Homo sapiens (Human), UniProt P15428)
Assay: Detection of activity of 15-PGDH enzyme
Format: biochemical
Details: inhibitory activity against 15-PGDH enzyme; substrates β-NAD and PGF2α; fluorescence Ex/Em=340/450
Procedure: • a. A solution of pH 7.5 containing 50 mM Tris-HCl, 0.01% Tween 20 was prepared with ultrapure water as a reaction buffer; • b. A 10 mM mother liquor of the compound to be tested was prepared with DMSO, and then the reaction buffer was used to dilute the mother liquor of the compound to be tested to obtain solution 1 of the compound to be tested at a concentration of 40,000 nM, and then the solution 1 of the compound to be tested was serially diluted into solutions 2-9 (or 2-12) of the compound to be tested at 9 (or 11) concentrations with a gradient difference of three-fold. 5 μL of each concentration of solutions of the compound to be tested was respectively taken and added into a 384-well plate as test wells; • c. 5 μL of the reaction buffer was then added to the blank wells of the 384-well plate as positive control and blank control wells, respectively; • d. The reaction buffer was used to prepare a 15-PGDH protein solution at a concentration of 5 ng/μL, 5 μL of the 15-PGDH protein solution was taken and added to the test wells and positive control wells, and meanwhile 5 μL of the reaction buffer was added to the blank control wells, then the plate was centrifuged at 2000 rpm for 30 seconds; • e. The reaction buffer was used to prepare 5 mM $3-NAD and 2 mM PGF2α, respectively, which were mixed at 1:1 by volume to obtain a substrate mixture, 10 μL of the substrate mixture was taken and added to the test wells, positive control wells and blank control wells to start the reaction; • f. The fluorescence signal value (Ex/Em=340/450) of each well was detected continuously by using a multifunctional microplate reader.
• a) Continuous fluorescence signal values were analyzed by using the “kinetic calculations-slope calculation method” in the PHERAstar Data analysis software to obtain the slope of each test well; • b) The inhibition rate % was calculated by using the following formula: inhibition rate %=[1−(slope of test well-signal value of positive control well)/(signal value of blank control well-average signal value of positive control well)]×100%. • c) Calculation of IC50 and plotting of inhibition rate-dose curves: IC50 values were calculated by fitting compound concentrations and corresponding inhibition rates with a nonlinear regression (dose response-variable slope) via using GraphPad Prism 6.0. The formula was shown below:
Y=Bottom+(Top−Bottom)/(1+10^((Log IC50−X)*HillSlope)), wherein X is a log value of a concentration of the compound, and Y is inhibition rate %.

Chain of 15-PGDH (P15428 whole entry): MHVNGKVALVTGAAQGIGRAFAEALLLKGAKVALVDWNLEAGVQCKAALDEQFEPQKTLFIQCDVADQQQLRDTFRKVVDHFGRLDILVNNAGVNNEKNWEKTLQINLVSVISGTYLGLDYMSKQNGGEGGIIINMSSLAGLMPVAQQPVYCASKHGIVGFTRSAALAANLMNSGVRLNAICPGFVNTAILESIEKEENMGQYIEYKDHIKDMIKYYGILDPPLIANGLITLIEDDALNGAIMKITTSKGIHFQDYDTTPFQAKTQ

Row | SMILES | IC50 [nM]
1 | Nc1cc(-c2cnc3c(C4CC4)c(C(=O)N4CCCCC4)sc3n2)ccn1 [Example 28] | 3 to 10
2 | O=C(c1sc2nc(-c3cccs3)cnc2c1C1CC1)N1CCCCC1 [Example 17] | 3 to 10
3 | COc1ccc(-c2cnc3c(C(F)(F)F)c(C(=O)N4CCCCC4)sc3n2)cn1 [Example 80] | 3 to 10
4 | Cn1cc(-c2cnc3c(C4CC4)c(C(=O)N4CCCCC4)sc3n2)ccc1=O [Example 18] | < 3
5 | N#Cc1ccc(-c2cnc3c(C4CC4)c(C(=O)N4CCCCC4)sc3n2)cn1 [Example 11] | 10 to 20
6 | O=C(c1sc2nc(-c3ccc(N4CCOCC4)nc3)cnc2c1C1CC1)N1CCCCC1 [Example 19] | 3 to 10
7 | O=C(c1sc2nc(-c3ccncc3)cnc2c1C1CC1)N1CCCCC1 [Example 9] | 3 to 10
8 | O=C(c1sc2nc(-c3ccccc3)cnc2c1C(F)(F)F)N1CCCCC1 [Example 63, (3-phenyl-7-(trifluoromethyl)thieno[2,3-b]pyrazin-6-yl)(piperidin-1-yl)methanone] | 3 to 10
9 | O=C(c1cc2ncc(-c3ccccc3)nc2s1)N1CCCCC1 [Example 100] | 10 to 20
10 | O=C(c1sc2nc(-c3ccnc(C(F)(F)F)c3)cnc2c1C1CC1)N1CCCCC1 [Example 25] | 10 to 20
11 | Cn1cc(-c2cnc3c(C4CC4)c(C(=O)N4CCCCC4)sc3n2)cn1 [Example 10] | 3 to 10
12 | O=C(c1sc2nc(-c3cccnc3)cnc2c1C1CC1)N1CCCCC1 [Example 7] | 3 to 10
13 | COc1cc(-c2cnc3c(C4CC4)c(C(=O)N4CCCCC4)sc3n2)ccn1 [Example 26] | < 3
14 | COc1cc(-c2cnc3c(C(F)(F)F)c(C(=O)N4CCCCC4)sc3n2)ccn1 [Example 85] | 3 to 10
15 | O=C(c1sc2nc(-c3ccc4c(c3)OCO4)cnc2c1C1CC1)N1CCCCC1 [Example 14] | 3 to 10
16 | O=C(c1sc2nc(-c3ccncc3)cnc2c1C(F)(F)F)N1CCCCC1 [Example 72] | 3 to 10
17 | CN1Cc2cc(-c3cnc4c(C#N)c(C(=O)N5CCCCC5)sc4n3)ccc2C1=O [Example 62] | 3 to 10
18 | O=C(c1sc2nc(-c3ccc4nccnc4c3)cnc2c1C1CC1)N1CCCCC1 [Example 20] | 3 to 10
19 | O=C(c1sc2nc(-c3ccnc(F)c3)cnc2c1C(F)(F)F)N1CCCCC1 [Example 65] | 3 to 10
20 | O=C(c1sc2nc(-c3c[nH]c4ccccc34)cnc2c1C1CC1)N1CCCCC1 [Example 16] | 10 to 20
21 | O=C(c1sc2nc(-c3cncs3)cnc2c1C1CC1)N1CCCCC1 [Example 29] | 3 to 10
22 | Cc1noc(C)c1-c1cnc2c(C3CC3)c(C(=O)N3CCCCC3)sc2n1 [Example 8] | 3 to 10

Results, then the compound that gave them:

Row | IC50 [nM] | SMILES
23 | < 3 | COc1ncc(-c2cnc3c(C4CC4)c(C(=O)N4CCCCC4)sc3n2)cn1 [Example 5]
24 | 3 to 10 | N#Cc1c(C(=O)N2CCCCC2)sc2nc(-c3cncs3)cnc12 [Example 56]
25 | 3 to 10 | Cc1cc(-c2cnc3c(C#N)c(C(=O)N4CCCCC4)sc3n2)ccn1 [Example 57]
26 | 10 to 20 | Cc1ccc(-c2cnc3c(C#N)c(C(=O)N4CCCCC4)sc3n2)cn1 [Example 51]
27 | < 3 | Nc1ncc(-c2cnc3c(C4CC4)c(C(=O)N4CCCCC4)sc3n2)cn1 [Example 31]
28 | 3 to 10 | N#Cc1c(C(=O)N2CCCCC2)sc2nc(-c3cnc(N)nc3)cnc12 [Example 60]
29 | 10 to 20 | N#Cc1c(C(=O)N2CCCCC2)sc2nc(-c3ccccc3)cnc12 [Example 33, 3-phenyl-6-(piperidine-1-carbonyl)thieno[2,3-b]pyrazine-7-carbonitrile]
30 | 3 to 10 | CN(C)c1ncc(-c2cnc3c(C#N)c(C(=O)N4CCCCC4)sc3n2)cn1 [Example 58]
31 | 10 to 20 | N#Cc1c(C(=O)N2CCCCC2)sc2nc(-c3ccc(N4CCOCC4)nc3)cnc12 [Example 43]
32 | 3 to 10 | N#Cc1c(C(=O)N2CCCCC2)sc2nc(-c3ccc4nccn4c3)cnc12 [Example 47]
33 | 10 to 20 | COc1ccc(-c2cnc3c(C#N)c(C(=O)N4CCCCC4)sc3n2)cn1 [Example 50]
34 | 3 to 10 | CN(C)c1ncc(-c2cnc3c(C4CC4)c(C(=O)N4CCCCC4)sc3n2)cn1 [Example 30]
